From PubChem BioAssay AID1902 (Broad Institute, 2009)
The source made the active and inactive calls.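 The calls were made as follows: active = EC50 no more than a set limit of log units above the highest dose; inactive = the rest.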

Molecular target: S. pyogenes SKKanGAS, kanamycin survival, BacTiterGlo, 6 h
Assay: SKKanGAS survival reduction under kanamycin, dose response, streptokinase promoter inhibitor project, SKKanGAS strain, luminescence, dose confirmation (AID 1902);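 also: lower survival reflects blocked streptokinase promoter driving kanamycin resistance gene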

| Structure (SMILES) | EC50 |
| --- | --- |
| COc1cc2oc3ccc(C#Cc4ccc(N)cc4)cc3c(=O)c2cc1OC | 0.799 µM |
| C=CCn1c(O)c(N=NC(=S)Nc2ccccc2F)c2ccccc21 | 0.572 µM |
| Cc1ccccc1-c1nc2c3ccccc3nc(=S)n2[nH]1 | 4.01 µM |
| Cc1cc(C)n(-c2nc(NC(C)(C)C)nc(NC(C)(C)C)n2)n1 | 0.396 µM |
| CCn1c(NC(=O)c2cccc(Cn3cc(Cl)cn3)c2)nc2ccccc21 | 1.02 µM |
| Cc1cc(N2CCN(c3ccccc3Cl)CC2)n2cc(-c3ccccc3)nc2n1 | 6.63 µM |
| CCOc1ccc(-n2c(C)cc(/C=C3/C(=N)N4C(=NC3=O)SN=C4S(C)(=O)=O)c2C)cc1 | 0.938 µM |
| CC1(C)CC[C@]2(C(=O)O)CC[C@]3(C)C(=CCC4[C@@]5(C)CC[C@H](O)C(C)(C)C5CC[C@]43C)C2C1 (some centres undefined) | 2.69 µM |
| COc1ccc(NC(=O)c2cccc(-c3ccc(O)cc3)c2)cn1 | 13 µM |
| CC(C)(C)c1ccc(C(=O)NNC(=S)NC(=O)c2cccnc2)cc1 | 0.249 µM |
| O=C(NNc1nc(-c2ccc(F)cc2)cs1)c1ccccc1 | 2.17 µM |
| Cc1cccc(NS(=O)(=O)c2ccc(C3CCCCC3)cc2)c1 | 4.82 µM |
| O=C1CCSc2ccc(Cl)cc2N1Cc1ccc(Cl)cc1 | 3.93 µM |
| O=C(c1cnn2c(C(F)(F)F)cc(-c3ccc(F)cc3)nc12)N1CCc2ccccc2C1 | 12.1 µM |
| O=C(NC(=S)NNC(=O)c1ccc(Cl)cc1Cl)c1cccnc1 | 3.07 µM |
| N#C/C(=N\Nc1ccc(Cl)cc1)C(N)=S | > 15 µM (inactive) |
| CCCCOC(=O)c1ccc(NC(=S)N2CCN(c3ncc4c(=O)c(C(=O)O)cn(CC)c4n3)CC2)cc1 | 2.04 µM |
| COc1ccc(CCN2C(=O)c3[nH]nc(-c4ccccc4O)c3C2c2cccc(Cl)c2)cc1 (centres undefined) | 7.71 µM |
| COc1cccc(CNCC(O)(c2ccc(Cl)cc2)c2ccc(Cl)cc2)c1 | 3.7 µM |
| Oc1c(CN2CCCCC2)cc(Br)c2cccnc12 | 1.12 µM |
| O=c1[nH]c(NNC(=S)NC2CCCCC2)nc2c1C1(CCCC1)Cc1ccccc1-2 | 1.35 µM |
| COc1ccc(-c2cc(C3CCN(Cc4cccc(C(F)(F)F)c4)CC3)[nH]n2)cc1 | 9.26 µM |

| Structure (SMILES) | EC50 |
| --- | --- |
| CCn1c(=O)c(C(=O)Nc2nc3ccccc3[nH]2)c(O)c2ccccc21 | 1.03 µM |
| CCCCSc1nc(C)cc(SCC(=O)N/N=C/c2cccc(OC)c2O)n1 | 2.14 µM |
| Oc1nc(Nc2ccc(F)cc2)sc1/C=C1\C=Nc2ccccc21 | 8.88 µM |
| O=C(CNc1ccc(F)cc1)N/N=C/c1c(O)ccc2ccccc12 | 1.12 µM |
| CNC[C@H](CC1CCCCC1)NC[C@H](Cc1ccccc1)NCCC12CC3CC(CC(C3)C1)C2 | 2.94 µM |
| O=Nc1c2cc(-c3ccccc3)[nH]nc-2c2ccccc12 | 6.43 µM |
| CN(C)CCCNc1cc(C(C)(C)C)nc2c(-c3ccc(Cl)cc3)cnn12 | 1.94 µM |
| N=C1SCC(=O)N1c1ncc(Cc2cccc(Cl)c2)s1 | 0.145 µM |
| Cc1[nH]n(-c2ccc(Cl)cc2)c(=O)c1/C=N/n1c(C)nc2ccccc2c1=O | 1.44 µM |
| N#C/C(=N\Nc1ccc(S(=O)(=O)N2CCc3ccccc32)cc1)C(N)=S | 11.3 µM |
| COCCCNC(=S)NNC(=S)Nc1cccc(Cl)c1 | > 15 µM (inactive) |
| COc1ccc(-c2oc3ncn(Cc4ccco4)c(=N)c3c2-c2ccc(OC)cc2)cc1 | 4.76 µM |
| Cc1ccc(C(C)C)cc1OCC(=O)Nc1ccccc1N1CCCC1 | 3.56 µM |
| CCOC(=O)c1c(C)[nH]c(C(=O)N/N=C/c2cc([N+](=O)[O-])ccc2O)c1C | 4.39 µM |
| CCc1ccc2[nH]c(=O)c(C3C(C#N)=C(N)Oc4c3ccc3cccnc43)cc2c1 (centres undefined) | 1.63 µM |
| Oc1c(Br)cc(Br)cc1/C=N/c1nc2c(s1)CCCC2 | 5.86 µM |
| CCCn1c(=O)c(C(=O)N/N=C/c2ccc(F)cc2)c(O)c2ccccc21 | 3.19 µM |
| COc1cccc(/C=N/Nc2cc(N3CCOCC3)ncn2)c1O | 7.64 µM |
| Cc1ccccc1OCC(=O)Nc1ccccc1N1CCCCC1 | 8.71 µM |
| C/C(=N\NC(=S)NCC(C)(C)C)c1cc(F)cc(F)c1O | 2.65 µM |
| N#CCSc1nc2ccc(N3CCOCC3)cc2c(=O)n1CCc1ccccc1 | 3.71 µM |
| COc1ccc(C(=O)/C=C/c2ccc(-c3ccccc3)cc2)cc1CSCC(=O)O | 5.51 µM |

| Structure (SMILES) | EC50 |
| --- | --- |
| COc1ccc(/C=C2\SC(=N)N(c3nccs3)C2=O)cc1OC | 0.838 µM |
| CCCCNC(=O)c1onc(CSc2ccc(C(C)C)cc2)c1C(=O)O | 4.13 µM |
| O=C(N/N=C/c1ccccc1O)c1ccc2c(c1)OCO2 | 2.76 µM |
| C=CCSc1nsc(NC(=O)Nc2ccc(F)cc2)n1 | 3.7 µM |
| CCOC(=O)c1c(S(=O)(=O)N2CCCCCC2)c(C)n(C)c1C | > 15 µM (inactive) |
| CCOc1ccccc1NC(=O)NCc1ccc2c(c1)OCO2 | > 15 µM (inactive) |
| O=C(N/N=C/c1cc(Cl)ccc1O)c1cccnc1 | 1.55 µM |
| CCC(=O)N(CCC(Cc1ccccc1)c1ccc2c(c1)OCO2)Cc1ccccc1F (centres undefined) | 6.5 µM |
| O=C(Nc1cc(Cl)ccc1-n1cncn1)c1ccc([N+](=O)[O-])o1 | 6.73 µM |
| CC(C)C(=O)Nc1ccc(C(=O)N/N=C/c2cc(Br)cc(Br)c2O)cc1 | 1.36 µM |
| CCCOc1ccc(C(=O)NC(=S)NNC(=O)c2c(-c3ccccc3)noc2C)cc1 | 0.274 µM |
| Cc1nn(CC(=O)NC2C(=O)N3C(C(=O)O)=C(CSc4nnnn4C)CSC23)cc1Br (centres undefined) | < 0.06 µM |
| O=c1[nH]c2cc3c(cc2cc1CN(CCc1ccccc1)Cc1nnnn1CC1CCCO1)OCO3 (centres undefined) | > 15 µM (inactive) |
| Cc1nn(-c2ccccc2)c(C)c1/C=N/NC(=O)c1cc(-c2ccc(Br)s2)[nH]n1 | 4.23 µM |
| Cc1ccc(NC(=S)c2nc3ccccc3[nH]2)c(C)c1 | 1.74 µM |
| CCCCCCN1N=C(C)C(C(=O)c2ccc(Cl)cc2)C1=O (centres undefined) | 1.51 µM |
| CCCC(Oc1ccc(Br)cc1)c1nc2c3cc(OC)c(OC)cc3nc(=S)n2[nH]1 (centres undefined) | 0.145 µM |
| Cc1cc(C)c2nc(NNC(=O)c3ccc(S(=O)(=O)N4CCCC(C)C4)cc3)sc2c1 (centres undefined) | 0.297 µM |
| CCCCCCCCCC[N+](C)(C)CC/C=C1/c2ccccc2Sc2ccc(Cl)cc21 | 2.31 µM |
| Cc1noc(NS(=O)(=O)c2ccc(NC(=O)c3oc4ccc(Cl)cc4c3C)cc2)c1C | 6.63 µM |
| Nc1c(C(=O)Nc2nc3ccccc3s2)sc2nc(-c3cccs3)ccc12 | 6.67 µM |
| Cc1cccc(C(=O)NCC(=O)N2CCOCC2)c1 | > 15 µM (inactive) |

| Structure (SMILES) | EC50 |
| --- | --- |
| CC(NC(=O)Cn1c(=O)[nH]c2ccsc2c1=O)C12CC3CC(CC(C3)C1)C2 (centres undefined) | > 15 µM (inactive) |
| Cc1ccccc1Oc1nc(-c2ccccn2)nc2ccccc12 | 4.19 µM |
| [O-][n+]1c2ccccc2[n+]([O-])c2cc(O)ccc21 | 5.86 µM |
| Cc1ccsc1C1C=C(c2cccc(Br)c2)Nc2ncnn21 (centres undefined) | 14.2 µM |
| CN(/N=C/c1cc(Br)cc(Br)c1O)c1cccc(C(F)(F)F)n1 | 0.544 µM |
| COc1ccccc1OCCCn1c(C)c(C#N)c2ccccc21 | 7.08 µM |
| COc1ccc2ccc3c(c2c1)N=C[C@]1(O3)N(C)c2ccccc2C1(C)C | 1.41 µM |
| CCn1c(=S)sc2c(=O)[nH]c(SCC(=O)Nc3cc(OC)ccc3OC)nc21 | 6.58 µM |
| CCOC(=O)c1ccc(Oc2cn[nH]c2-c2ccc(OCC(=O)NN)cc2O)cc1 | 0.357 µM |
| CCCCNc1c(-c2ccc(SC3CCCCC3)cc2)nc2ccccn12 | 3.87 µM |
| Cc1cc(C)c2nc(NNC(=O)c3cc(=O)c4ccccc4o3)sc2c1 | 0.165 µM |
| Cc1cccc(Oc2nc(-c3ccncc3)nc3ccccc23)c1 | 8.04 µM |
| CCOC(=O)c1cnc(-n2nc(C)cc2C)nc1NCc1ccccc1 | 4.14 µM |
| N#Cc1ccc(Cl)cc1NC(=O)CSc1nc2nc(-c3cccs3)cc(C(F)(F)F)c2c(=O)[nH]1 | 4.97 µM |
| Cc1cc(/C=C2\SC(=S)NC2=O)c(C)n1-c1ccc(O)cc1 | 1.1 µM |
| O=c1cc(CSc2ccc(Cl)cc2)nc(-c2ccccn2)[nH]1 | 0.371 µM |
| CC12CCC(c3c(C(=O)Nc4nccs4)nn(-c4ccccc4)c31)C2(C)C (centres undefined) | 3.4 µM |
| O=C(COc1ccc([N+](=O)[O-])cc1)Nc1nc(-c2ccccn2)cs1 | 3.68 µM |
| Cc1cccc(-c2oc3ccccc3c2C#CCCCCO)c1 | 5.72 µM |
| O=C(N/N=C/c1cc(Br)cc([N+](=O)[O-])c1O)c1ccc(NC(=O)c2ccc(F)cc2)cc1 | 4 µM |
| C/C(=N\NC(=O)c1cc(Br)ccc1O)c1cccc(NC(=O)c2ccccc2F)c1 | 2.87 µM |
| FC(F)(F)c1cccc(-c2nc3nc(Cl)c(Cl)nc3[nH]2)c1 | 6.58 µM |

| Structure (SMILES) | EC50 |
| --- | --- |
| Oc1[nH]c2ccccc2c1N=NC(=S)NCCc1ccccc1 | 4.39 µM |
| COc1cc(OC)cc(C(=O)NC(=S)N2CCN(c3ccc(C(F)(F)F)cc3[N+](=O)[O-])CC2)c1 | 1.28 µM |
| C=CC1=C(C(=O)O)N2C(=O)C(NC(=O)Cc3ccccc3)C2SC1 (centres undefined) | 0.13 µM |
| NC(=O)c1ccc(NC(=O)COC(=O)c2c3c(nc4ccccc24)/C(=C\c2ccc4c(c2)OCO4)CCC3)cc1 | 5.31 µM |
| CCOC(=O)c1cnn(-c2nc(-c3cccc(F)c3)cs2)c1C(F)(F)F | 12.3 µM |
| Cc1ccc2nc(NNC(=O)c3ccc(S(=O)(=O)N4CCc5ccccc5C4)cc3)sc2c1 | 0.793 µM |
| O=C1[C@H]2C(c3ccccc3)=NN(c3ccccc3)[C@H]2C(=O)N1c1ccccc1 | 0.485 µM |
| Cc1ccc(/C=C/C(=O)C2C(=O)c3ccccc3C2=O)cc1 | 1.62 µM |
| O=C(N/N=C/c1ccc(-c2ccc(Cl)c(C(=O)O)c2)o1)c1cc2c(ccc3ccccc32)o1 | 4.05 µM |
| CCn1cc(C(=O)O)c(=O)c2cc(F)c(N/N=C/c3ccccc3[N+](=O)[O-])cc21 | 4.39 µM |
| COc1ccc(-c2nc(NC(C)=O)sc2-c2ccc(OC)cc2)cc1 | 4.05 µM |
| Cc1ccc(OCCSc2nc(NC(C)C)nc(NC(C)C)n2)cc1 | 4.4 µM |
| CC1(C(=O)NC(=S)NNC(=O)c2ccncc2)CCCCC1 | 1.1 µM |
| C=CCn1c(O)c(C(CC)=Nc2ccc(N(C)C)cc2)c(=O)[nH]c1=O | 3.05 µM |
| CN1CCN(C2=Cc3cc(Cl)ccc3Sc3cc(F)ccc32)CC1 | 5.16 µM |
| Cc1cc(Oc2ccc(Cl)cc2)nc(-c2ccccc2O)n1 | > 15 µM (inactive) |
| Oc1nc(Nc2ccc(Cl)cc2Cl)sc1/C=C1\C=Nc2ccccc21 | 1.76 µM |
| O=C(Nc1nc2ccccc2n1Cc1ccccc1)c1ccco1 | 2.91 µM |
| Cc1ccc(S(=O)(=O)N2CCCCC2)cc1NC(=O)CN1C(=O)CN(C)C1=O | > 15 µM (inactive) |
| COc1ccc(C(=O)Nc2nnc(-c3ccccc3)o2)cc1OC | 5.56 µM |
| Cc1ccc(C(=O)NC(=S)NNC(=O)c2cccc([N+](=O)[O-])c2)cc1 | 1.69 µM |
